Reference: patent US20150320723A1, “Use of Small Molecule Unfolder Protein Response Modulators to Treat Tumors With Active Sonic Hedgehog (SSH) Signaling Due To Smoothened (SMO) Mutation” (ST. JUDE CHILDREN'S RESEARCH HOSPITAL, priority 2013, published 2015)
“Also recorded” adds a separate entry of the source.

Assays:
[1] = test system: M2 mSmo (mSmoM2); experiment: Thapsigargin sensitivity analysis: mSmo protein stability in NIH3T3 cells, western blot of whole-cell lysates; type: cell-based, mouse; conditions: 1 uM thapsigargin, 4 hours prior to lysis, vs vehicle
Protocol: (§1) Next, it was decided to determine whether the effects observed following thermal ER stress induction could be recapitulated by an ER stress modulator that is specific to the UPR. To this end, Smo-expressing cells were treated with the potent ER stress inducing compound thapsigargin. Wild type, C318A or M2 mSmo proteins was expressed in NIH3T3 cells, and treated with vehicle or thapsigargin for 4 hours prior to lysis (FIG. 6A). […] The exact mechanism by which gli1 expression is increased in the wild type mSmo background in response to thapsigargin was not known.
(§2) For protein stability analysis in mammalian cells, ˜1×10^6NIH3T3 cells were transfected with 2 ug of wild type or mutant pcDNA3.1-amino expression vector (Carroll et al., 2012 [31]). For temperature sensitivity analysis, transfected cells were maintained at 37° C. for ˜44 hours, and then shifted to 40° C. for 4 hours prior to lysis. Whole-cell lysates were prepared in modified RIPA buffer (50 mM Tris-HCl, pH 7.4, 150 mM NaCl, 0.25% deoxycholic acid, 1% NP-40, 1 mM EDTA, 0.1% SDS, 0.5 mM DTT, and 1× PIC (Roche)) by rocking for 30 minutes at 4° C. as described (Nachtergaele et al., 2012 [62]). Cell extracts were cleared by centrifuging at 16,000×g at 4° C. for 45 minutes. Supernatants were collected and analyzed by SDS-Page and western blot using anti-GADD153/CHOP (B-3, SCBT) anti-Smo (E5, SCBT) and anti-tubulin (Cell Signaling) antibodies. For thapsigargin sensitivity analysis, NIH3T3 cells expressing wild type or mutant mSmo protein at 37° C. were treated with vehicle (ethanol) or 1 uM thapsigargin (Sigma) in DMEM containing 0.5% fetal calf serum for 4 hrs prior to lysis. Whole-cell lysates were prepared in modified RIPA buffer and analyzed as above.

[2] = test system: wild type mSmo; experiment: as above; type: cell-based, mouse; conditions: 1 uM thapsigargin, 4 hours prior to lysis, vs vehicle
Protocol: as §1, §2

[3] = test system: C318A mSmo; experiment: as above; type: cell-based, mouse; conditions: 1 uM thapsigargin, 4 hours prior to lysis, vs vehicle
Protocol: as §1, §2

[4] = test system: wings from wild type Myc-Smo expressing flies; experiment: Thapsigargin feeding of larvae: adult wing phenotype, wild type Myc-Smo; type: in vivo, Drosophila; conditions: larvae grown at 22° C. on food containing thapsigargin (1 uM) vs vehicle
Protocol: (§3) To confirm that thapsigargin treatment of transgenic Drosophila would not nonspecifically alter UAS/GAL4 transgene expression, the effect of feeding thapsigargin or vehicle control to larvae expressing a GFP transgene under control of the MS1096-Gal4 wing pouch driver was first tested (FIG. 8A). […] Next either wild type or C320A Myc-Smo proteins were expressed at 22° C. under control of MS1096-Gal4, and grew larvae on food containing either vehicle or thapsigargin (FIGS. 8C-D). Consistent with the in vitro results, wings from wild type Myc-Smo expressing flies were unaffected by thapsigargin treatment (FIGS. 8C-C′ compared to B, control).
(§4) Fly stocks were maintained at 18° C. on Jazz mix agarose (Fisher). Crosses were performed at 22° C. or 29° C. as indicated. UAS-myc-smo, UAS-myc-smoC320A and UAS-mycsmoC339A (Carroll et al., 2012 [31]) were expressed under control of MS1096-Gal4. UAS-Xbp1-GFP (Ryon et al., 2007 [44]) was expressed under control of sgs3-Gal4. […] For wing analyses, crosses were performed at least twice, and multiple progeny analyzed. […]
(§5) For drug treatment, 1 to 24 hour MS1096>myc-smoC320A embryos were collected and transferred to vials containing 2 mL Jazz agarose containing vehicle (ethanol) or thapsigargin (Sigma) at a final concentration of 1 uM. Drug feeding was performed across two separate crosses and multiple progeny analyzed. […]

[5] = test system: Myc-SmoC320A-induced Hh gain-of-function wing phenotypes; experiment: Thapsigargin feeding of larvae: adult wing phenotype, Myc-SmoC320A; type: in vivo, Drosophila; conditions: larvae grown at 22° C. on food containing thapsigargin (1 uM) vs vehicle
Protocol: as §3, §4, §5

[6] = test system: mSmoM2-induced gli1 expression; experiment: qPCR analysis of endogenous gli1 induction in NIH3T3 cells expressing mSmoM2; type: cell-based, mouse
Protocol: as §1
To assess gli1 and smo expression, NIH3T3 cells were plated as above and transfected using Fugene 6 (Promega). […] RNA was extracted using RNeasy kit (Qiagen) ˜16 hours after media exchange. cDNA was synthesized from 5 ug of RNA using SuperScript III first strand synthesis system (Invitrogen). qPCR reactions were performed on cDNA diluted 1:10 using SYBR Green PCR master mix (Applied Biosystems). GAPDH was used as a reference gene and results were analyzed using a standard 2^−ααCt method (Livak & Schmittgen, 2001 [63]). The following gene specific primers were used: […]
(§6) qPCR analysis was performed three times in triplicate, and all data pooled. Error bars indicate standard error of the mean.

[7] = test system: C320A-mediated ectopic stabilization of Ci; experiment: Immunofluorescence of wing imaginal discs from drug-fed larvae: full-length Ci; type: in vivo, Drosophila; conditions: discs from thapsigargin-fed larvae at 22° C. vs vehicle
Protocol: as §3
(§7) For drug treatment, 1 to 24 hour MS1096>myc-smoC320A embryos were collected and transferred to vials containing 2 mL Jazz agarose containing vehicle (ethanol) or thapsigargin (Sigma) at a final concentration of 1 uM. Drug feeding was performed across two separate crosses and multiple progeny analyzed. Representative wings from the resulting adult flies were mounted and imaged as above.
(§8) pAc-myc-smo constructs were expressed in Schneider 2 (S2) cells as described (Carroll et al., 2012 [31]). […] For all indirect immunofluorescence, the indicated primary antibodies were detected using Alexa Fluor (Invitrogen) secondary antibodies conjugated to 488 or 555 fluorophores. […]

[8] = test system: Myc-SmoC320A protein; experiment: Immunofluorescence of wing imaginal discs from drug-fed larvae: Myc-SmoC320A protein; type: in vivo, Drosophila; conditions: discs from thapsigargin-fed larvae at 22° C. vs vehicle
Protocol: as §3, §7, §8

[9] = test system: GFP transgene under control of MS1096-Gal4; experiment: Thapsigargin feeding of MS1096>GFP larvae: transgene expression in wing imaginal discs; type: in vivo, Drosophila; conditions: larvae fed thapsigargin (1 uM in food) at 22° C.
Protocol: as §3, §7

[10] = test system: smo expression; experiment: qPCR analysis of smo expression in NIH3T3 cells expressing wild type or M2 mSmo; type: cell-based, mouse; conditions: thapsigargin treatment
Protocol: (§9) To assess gli1 and smo expression, NIH3T3 cells were plated as above and transfected using Fugene 6 (Promega). Approximately 30 hours post transfection, culture media was replaced with complete media containing 250 nM Thapsigargin or vehicle (ethanol) control. RNA was extracted using RNeasy kit (Qiagen) ˜16 hours after media exchange. cDNA was synthesized from 5 ug of RNA using SuperScript III first strand synthesis system (Invitrogen). qPCR reactions were performed on cDNA diluted 1:10 using SYBR Green PCR master mix (Applied Biosystems). GAPDH was used as a reference gene and results were analyzed using a standard 2^−ααCt method (Livak & Schmittgen, 2001 [63]). The following gene specific primers were used: […]
as §6

[11] = test system: gli1 expression in cells expressing wild type mSmo; experiment: qPCR analysis of gli1 expression in NIH3T3 cells expressing wild type mSmo; type: cell-based, mouse; conditions: wild type mSmo-expressing NIH3T3 cells with thapsigargin; normalized to GAPDH
Protocol: as §1, §9
qPCR analysis was performed three times in triplicate, and all data pooled. […]

C/C=C(/C)C(=O)O[C@H]1C(C)=C2[C@H]([C@@H]1OC(=O)CCCCCCC)[C@@](C)(OC(C)=O)C[C@H](OC(=O)CCC)[C@@]1(O)[C@H]2OC(=O)[C@@]1(C)O [thapsigargin]
M2 mSmo protein stability [1]: destabilized | wild type mSmo protein stability [2]: not significantly affected | C318A mSmo protein stability [3]: destabilized | wing phenotype of wild type Myc-Smo expressing flies [4]: unaffected | wing phenotype of wild type Myc-Smo expressing flies ([4]; listed as Thapsigargin): did not affect | Myc-SmoC320A-induced Hh gain-of-function wing phenotype [5]: significantly attenuated; also recorded: significantly reduced | reduction of mSmoM2-mediated gli1 induction ([6]; NIH3T3 cells, 250 nM thapsigargin ~16 hours (method), vehicle gives approx. 40-fold): approximately 50% | mSmoM2-induced gli1 expression (qualitative) ([6]; NIH3T3 cells, over-night treatment with 200 nM thapsigargin (FIG. 6B legend)): specific attenuation | gli1 expression, fold over the mSmoWT baseline ([6]; mSmoM2-expressing NIH3T3 cells with thapsigargin, normalized to GAPDH): ~18 fold | C320A-mediated ectopic stabilization of Ci in wing imaginal discs [7]: reduced Ci stabilization; also recorded: dramatically reduced | Myc-SmoC320A protein level in wing imaginal discs [8]: significantly reduced; also recorded: significant reduction | GFP transgene expression [9]: unaffected | smo expression (wild type and M2 transcripts) [10]: modest increase; also recorded: increased modestly | gli1 expression, fold over baseline [11]: ~4 fold
